# Measured values reported in patent publication US20140005163A1 (NOVARTIS AG, priority 2010, published 2014).
# pIC50: −log10 of the molar value. Read-outs that look alike come from different tables or passages of the source.
# Experiments:
# [1] = system: PKB Ser473 phosphorylation in Rat1-myr-HA-p110 delta cells; experiment: Reverse protein array assay, PKB Ser473 phosphorylation in Rat1-myr-p110 delta cells; assay type: cell-based; details: read-out: p-PKB IC50
# Summary of the method: (§1)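 Rat1 cells expressing myristoylated HA-tagged p110 alpha, beta or delta were plated for at least 20 h, then exposed to 8-step serial compound dilutions (0.2% DMSO final) for 30 min at 37 °C. Lysates were spotted at four dilutions on protein microarrays, and relative fluorescence intensity of phospho-Ser473 PKB was calculated.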
# [2] = system: PKB Ser473 phosphorylation in Rat1-myr-HA-p110 alpha cells; experiment: Reverse protein array assay, PKB Ser473 phosphorylation in Rat1-myr-p110 alpha cells; assay type: cell-based; details: 0.5 h, pAkt Ser473, 30 minutes compound incubation, read-out: p-PKB IC50
# Summary of the method: as §1
# [3] = target: T1, PI3K delta (Homo sapiens, UniProt O00329); experiment: PI3K delta kinase assay (Kinase-Glo luminescence); assay type: biochemical
# T1 construct: for the full-length p110-d subunit are generated and fused by overlapping PCR; p85(iSH2) fusion partner (see partner chain) (N); His tag (C); made in house; host or cells: baculovirus; Tn5 (Trichoplusia ni) or TiniPro insect cells
# Summary of the method: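 Lipid kinase activity of a His-tagged p110δ full-length/p85 iSH2 fusion (10 nM) toward bovine liver phosphatidylinositol (10 μg/mL) at 1 μM ATP, pH 7.5, 60 min, room temperature. ATP consumption is quantified by luciferase-based luminescence. Four-parameter logistic fitting gives IC50.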
# [4] = Solubility at pH 6.8; assay type: physicochemical
# Summary of the method: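 Following the procedure of Zhou et al. (2007), compound solubility was determined at pH 6.8.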
# [5] = system: PKB Ser473 phosphorylation in Rat1-myr-HA-p110 beta cells; experiment: Reverse protein array assay, PKB Ser473 phosphorylation in Rat1-myr-p110 beta cells; assay type: cell-based; details: 0.5 h, pAkt Ser473, 30 minutes incubation, read-out: p-PKB IC50
# Summary of the method: as §1
# [6] = pH 6.8, aqueous buffer, thermodynamic from solid, read-out: solubility
# T1 sequence (O00329 with tags, fused parts or gaps limits assumed): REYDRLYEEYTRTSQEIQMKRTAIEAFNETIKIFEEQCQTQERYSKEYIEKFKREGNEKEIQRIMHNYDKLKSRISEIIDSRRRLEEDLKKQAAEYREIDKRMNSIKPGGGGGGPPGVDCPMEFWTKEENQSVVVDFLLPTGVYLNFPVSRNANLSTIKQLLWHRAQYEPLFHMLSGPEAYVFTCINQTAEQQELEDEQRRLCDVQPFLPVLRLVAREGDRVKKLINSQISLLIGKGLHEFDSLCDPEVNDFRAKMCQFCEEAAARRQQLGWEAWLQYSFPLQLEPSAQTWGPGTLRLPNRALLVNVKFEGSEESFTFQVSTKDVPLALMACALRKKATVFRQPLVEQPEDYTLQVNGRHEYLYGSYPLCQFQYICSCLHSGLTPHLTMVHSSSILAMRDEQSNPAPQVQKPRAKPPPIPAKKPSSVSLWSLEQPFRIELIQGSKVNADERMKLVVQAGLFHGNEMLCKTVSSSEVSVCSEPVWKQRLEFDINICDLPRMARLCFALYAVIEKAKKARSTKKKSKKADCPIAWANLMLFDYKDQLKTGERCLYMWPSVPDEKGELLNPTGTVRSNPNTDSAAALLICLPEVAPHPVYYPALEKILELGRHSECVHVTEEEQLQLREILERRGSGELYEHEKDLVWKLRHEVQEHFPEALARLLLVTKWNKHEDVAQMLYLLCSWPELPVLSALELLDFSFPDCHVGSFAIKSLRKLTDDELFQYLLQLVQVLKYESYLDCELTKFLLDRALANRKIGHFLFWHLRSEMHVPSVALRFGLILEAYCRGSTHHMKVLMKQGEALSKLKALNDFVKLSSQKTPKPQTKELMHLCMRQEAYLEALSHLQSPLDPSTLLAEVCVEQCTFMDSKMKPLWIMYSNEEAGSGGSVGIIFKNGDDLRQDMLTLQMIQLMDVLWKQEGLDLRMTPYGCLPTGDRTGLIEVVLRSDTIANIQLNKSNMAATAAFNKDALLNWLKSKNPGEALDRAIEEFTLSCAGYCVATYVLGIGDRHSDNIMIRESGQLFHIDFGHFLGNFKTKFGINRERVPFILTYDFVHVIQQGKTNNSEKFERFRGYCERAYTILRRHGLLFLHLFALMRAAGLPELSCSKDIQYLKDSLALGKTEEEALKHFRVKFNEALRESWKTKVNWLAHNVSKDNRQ
Compound,pIC50 [1],pIC50 [2],pIC50 [3],solubility ([4]; pH 6.8) [µg/mL],pIC50 [5],"solubility [4, 6] [µg/mL]"
"COc1ccc(-c2ccc3ncc4c(c3c2)n(-c2ccnn2C)c(=O)n4C)cc1OC [Example 1.3, 8-(3,4-Dimethoxy-phenyl)-3-methyl-1-(2-methyl-2H-pyrazol-3-yl)-1,3-dihydro-imidazo[4,5-c]quinolin-2-one]",6.85,7.34,7.92,2,7.02,
"COc1ccc(-c2ccc3ncc4c(c3c2)n(-c2cn(C)nc2C)c(=O)n4C)cc1OC [Example 1.8, 8-(3,4-Dimethoxy-phenyl)-1-(1,3-dimethyl-1H-pyrazol-4-yl)-3-methyl-1,3-dihydro-imidazo[4,5-c]quinolin-2-one]",7.85,8.05,8.30,,8.10,10
"COc1ccc(-c2ccc3ncc4c(c3c2)n(-c2cc(C)nn2C)c(=O)n4C)cn1 [Example 2.3, 1-(2,5-Dimethyl-2H-pyrazol-3-yl)-8-(6-methoxy-pyridin-3-yl)-3-methyl-1,3-dihydro-imidazo[4,5-c]quinolin-2-one]",6.62,7.92,7.52,,6.94,7
"COc1ccc(-c2ccc3ncc4c(c3c2)n(-c2cn(C(C)C)nc2C)c(=O)n4C)cn1 [Example 2.8, 1-(1-Isopropyl-3-methyl-1H-pyrazol-4-yl)-8-(6-methoxy-pyridin-3-yl)-3-methyl-1,3-dihydro-imidazo[4,5-c]quinolin-2-one]",6.98,7.34,7.82,2,7.39,
"CCOc1ccc(-c2ccc3ncc4c(c3c2)n(-c2ccnn2CC)c(=O)n4C)cn1 [Example 3.4, 8-(6-Ethoxy-pyridin-3-yl)-1-(2-ethyl-2H-pyrazol-3-yl)-3-methyl-1,3-dihydro-imidazo[4,5-c]quinolin-2-one]",6.38,6.67,6.55,2,6.61,
"CCOc1ccc(-c2ccc3ncc4c(c3c2)n(-c2cn(CC)nc2C)c(=O)n4C)cn1 [Example 3.5, 8-(6-Ethoxy-pyridin-3-yl)-1-(1-ethyl-3-methyl-1H-pyrazol-4-yl)-3-methyl-1,3-dihydro-imidazo[4,5-c]quinolin-2-one]",6.86,7.46,7.40,,7.54,4
"CCOc1ccc(-c2ccc3ncc4c(c3c2)n(-c2cnn(C)c2C)c(=O)n4C)cn1 [Example 3.6, 1-(1,5-Dimethyl-1H-pyrazol-4-yl)-8-(6-ethoxy-pyridin-3-yl)-3-methyl-1,3-dihydro-imidazo[4,5-c]quinolin-2-one]",6.63,7.35,6.80,2,6.92,
"Cc1nn(C(C)C)cc1-n1c(=O)n(C)c2cnc3ccc(-c4ccc(N(C)C)nc4)cc3c21 [Example 4.1, 8-(6-Dimethylamino-pyridin-3-yl)-1-(1-isopropyl-3-methyl-1H-pyrazol-4-yl)-3-methyl-1,3-dihydro-imidazo[4,5-c]quinolin-2-one]",7.23,7.80,7.41,,7.72,336
"CCn1cc(-n2c(=O)n(C)c3cnc4ccc(-c5cnc(N(C)C)nc5)cc4c32)c(C)n1 [Example 6.4, 8-(2-Dimethylamino-pyrimidin-5-yl)-1-(1-ethyl-3-methyl-1H-pyrazol-4-yl)-3-methyl-1,3-dihydro-imidazo[4,5-c]quinolin-2-one]",7.21,7.38,7.36,,7.28,36
"CNC(=O)c1ccc(-c2ccc3ncc4c(c3c2)n(-c2cn(C(C)C)nc2C)c(=O)n4C)cn1 [Example 15.3, 5-[1-(1-Isopropyl-3-methyl-1H-pyrazol-4-yl)-3-methyl-2-oxo-2,3-dihydro-1H-imidazo[4,5-c]quinolin-8-yl]-pyridine-2-carboxylic acid methylamide]",7.00,7.55,6.48,,7.68,5
"Cc1nn(C)cc1-n1c(=O)n(C)c2cnc3ccc(-c4ccc(CO)nc4)cc3c21 [Example 16.2, 1-(1,3-Dimethyl-1H-pyrazol-4-yl)-8-(6-hydroxymethyl-pyridin-3-yl)-3-methyl-1,3-dihydro-imidazo[4,5-c]quinolin-2-one]",6.82,6.82,7.74,,7.15,102
"COCCOc1ccc(-c2ccc3ncc4c(c3c2)n(-c2cn(C)nc2C)c(=O)n4C)cn1 [Example 18, 1-(1,3-Dimethyl-1H-pyrazol-4-yl)-8-[6-(2-methoxy-ethoxy)-pyridin-3-yl]-3-methyl-1,3-dihydro-imidazo[4,5-c]quinolin-2-one]",6.50,6.86,6.94,,6.64,240
"CCOc1ccc(-c2ccc3ncc4c(c3c2)n(-c2cn(CC)nc2C)c(=O)n4C)cc1OCC [Example 27.1, 8-(3,4-Diethoxy-phenyl)-1-(1-ethyl-3-methyl-1H-pyrazol-4-yl)-3-methyl-1,3-dihydro-imidazo[4,5-c]quinolin-2-one]",7.25,7.77,7.77,2,7.68,
"CCOc1cc(-c2ccc3ncc4c(c3c2)n(-c2cn(CC)nc2C)c(=O)n4C)ccc1OC [Example 28.1, 8-(3-Ethoxy-4-methoxy-phenyl)-1-(1-ethyl-3-methyl-1H-pyrazol-4-yl)-3-methyl-1,3-dihydro-imidazo[4,5-c]quinolin-2-one]",7.35,8.15,8.22,,7.54,9
"CCOc1cc(-c2ccc3ncc4c(c3c2)n(-c2c(C)nn(C)c2C)c(=O)n4C)ccc1OC [Example 28.2, 8-(3-Ethoxy-4-methoxy-phenyl)-3-methyl-1-(1,3,5-trimethyl-1H-pyrazol-4-yl)-1,3-dihydro-imidazo[4,5-c]quinolin-2-one]",6.67,7.12,7.28,,6.90,3
"CCOc1cc(-c2ccc3ncc4c(c3c2)n(-c2cn(C)nc2C)c(=O)n4C)ccc1OC [Example 28.3, 1-(1,3-Dimethyl-1H-pyrazo1-4-yl)-8-(3-ethoxy-4-methoxy-phenyl)-3-methyl-1,3-dihydro-imidazo[4,5-c]quinolin-2-one]",7.62,8.05,7.38,2,7.82,
"CCOc1ccc(-c2ccc3ncc4c(c3c2)n(-c2cn(C)nc2C)c(=O)n4C)cc1OC [Example 29.3, 1-(1,3-Dimethyl-1H-pyrazol-4-yl)-8-(4-ethoxy-3-methoxy-phenyl)-3-methyl-1,3-dihydro-imidazo[4,5-c]quinolin-2-one]",7.42,8.10,7.40,2,7.82,
"Cc1nn(CC(=O)N(C)C)cc1-n1c(=O)n(C)c2cnc3ccc(-c4ccccc4)cc3c21 [Example 37.3, N,N-Dimethyl-2-[3-methyl-4-(3-methyl-2-oxo-8-phenyl-2,3-dihydro-imidazo[4,5-c]quinolin-1-yl)-pyrazol-1-yl]-acetamide]",6.44,7.40,,,6.63,41
"Cc1nn(CC(=O)N(C)C)c(C)c1-n1c(=O)n(C)c2cnc3ccc(-c4cncc(OC5CCC5)c4)cc3c21 [Example 60.2, 2-{4-[8-(5-Cyclobutoxy-pyridin-3-yl)-3-methyl-2-oxo-2,3-dihydro-imidazo[4,5-c]quinolin-1-yl]-3,5-dimethyl-pyrazol-1-yl}-N,N-dimethyl-acetamide]",,6.08,6.16,,,76
"CCN(C)C(=O)Cn1cc(-n2c(=O)n(C)c3cnc4ccc(-c5ccccc5)cc4c32)c(C)n1 [Example 135, N-Ethyl-N-methyl-2-[3-methyl-4-(3-methyl-2-oxo-8-phenyl-2,3-dihydro-imidazo[4,5-c]quinolin-1-yl)-pyrazol-1-yl]-acetamide]",6.44,7.59,,,6.93,164
"CCN(C)C(=O)Cn1cc(-n2c(=O)n(C)c3cnc4ccc(-c5cnc(N6CCCC6)nc5)cc4c32)c(C)n1 [Example 140.1, N-Ethyl-N-methyl-2-{3-methyl-4-[3-methyl-2-oxo-8-(2-pyrrolidin-1-yl-pyrimidin-5-yl)-2,3-dihydro-imidazo[4,5-c]quinolin-1-yl]-pyrazol-1-yl}-acetamide]",6.51,7.08,,,7.00,36
